Results from patent US8980922B2, “5-HT4 receptor agonists for the treatment of dementia” (Raqualia Pharma Inc., priority 2010, dated 2015).
Where a name gives a salt, the structure may show the parent alone.

Assays:
Male IGS rats [1] = experiment: Rat Novel Object Recognition Study; type: in vivo
Protocol: Rat Novel Object Recognition Study (Method Referred: PNAS, 101 (2003) 853-858)
Male IGS rats (9 weeks-old, Charles River Laboratories Japan, Inc.) were used in this study. Compound A and donepezil hydrochloride (reference substance) were orally administered at 60 min before training trial and before retention trial. Number of animals per group was 15. Open-field box (40×40×40 cm) with sawdust covering its floor was used in this study. As for the training trials, the animals were allowed to explore two identical objects (A1 and A2) for 3 min. The objects are plastic “LEGO bricks” that vary in shape, color, and size. […]
Exploration of an object was defined as pointing the nose to the object at a distance of <1 cm and/or touching it with the nose. DVD images were analyzed by an observer who was […] of the treatment condition. To assess cognitive performance, the time spent exploring the familiar (TA3) and novel (TB) object, and discrimination index (DI; (TB−TA3)/(TB+TA3)) was analyzed. […] To assess the overall levels of exploratory performance, total time spent exploring the both objects was analyzed.
For Compound A, discrimination index was analyzed using Bartlett's test followed by Dunnett's multiple comparison test. […] For donepezil, discrimination index was analyzed using F-test, followed by Student's t-test. […]

Male IGS rats [2] = experiment: Spontaneous alteration test in rats (scopolamine-induced impairment); type: in vivo, rat
Protocol: Spontaneous Alteration Test in Rats (Method Referred: Eur. J. Pharmacol., 236 (1993) 341-345)
Male IGS rats (6 weeks-old, Charles River Laboratories Japan, Inc.) were used in this study. The scopolamine solution or saline was administered intraperitoneally 30 minutes after the administration of the test substance or vehicle. Thirty minutes after the injection, the rat was placed at the end of one arm toward to the end of the arm and was allowed to move freely through the maze for 8-min test session. The sequence of arm entries was recorded manually. Alteration was defined as entry into all three arms on consecutive choices. The percent alteration as an indicator of spontaneous alteration performance was calculated as (number of alterations/total number of arm entries minus 2)×100.
The effect of Compound A on the scopolamine-induced impairment of spontaneous alteration performance in rats was investigated. In the percent alterations, the values on saline- and scopolamine-treated groups were 75.2% and 53.9%, respectively.

Tg2576 mice = experiment: Abeta reduction in Tg2576 mice; type: in vivo; details: 1 and 10 mg/kg BID orally, three weeks; soluble plus insoluble Abeta, ELISA
Protocol: Female Tg2576 mice that express the human amyloid precursor protein (APP) gene with the Swedish mutation (APPSWE) were purchased from Taconic Farms (catalog #001349-TF).
Tg2576 mice (31-week old at the beginning of the experiment) were dosed orally twice a day (BID) for 3 weeks with 0.1, 1, or 10 mg/kg Compound A in the vehicle consisting of 0.5% methylcellulose and 0.1% Tween 80. Mice were euthanized three hours after the last dose. Brain tissues were collected and homogenized in 5-volumes of ice-cold TBS buffer (50 mM Tris-HCl) containing 1% CHAPS and protease inhibitors. The homogenates were centrifuged at 14,000 g for 10 minutes at 4° C., and the resulting supernatants were collected as soluble pool of Abeta. The pellets were dissolved in the starting volume of 5 M guanidine in TBS buffer and the resulting homogenates were collected as insoluble pool of Abeta. Abeta1-40 and Abeta1-42 were quantified using commercially available ELISA kits according to the manufacture's instructions. Measurements were performed in duplicate. The final values of Abeta in the brain were expressed as nanograms per gram wet brain weight. Total Abeta levels were obtained by adding the values of the soluble and insoluble Abeta levels.

[3] = tested on: rat hippocampus (Hip) ACh level; experiment: Increase of hippocampus ACh release in rats (microdialysis); type: in vivo; details: direct injection (perfusion via dialysis probe, 120 min) into rat Hip; 100 nM eserine in aCSF
Protocol: Increase of Hippocampus ACh Release in Rats
Effects of Compound A on rat hippocampus (Hip) ACh level were tested using microdialysis in Male Wistar rats. One day before the start of the experiments, rats were anesthetized and guide cannula was implanted in the dorsal Hip. One day after surgery, a dialysis probe was inserted through a guide cannula in Hip and perfused with artificial cerebrospinal fluid (aCSF) containing 148 mM NaCl, 2.7 mM KCl, 1.2 mM CaCl2, 0.85 mM MgCl2, together with 100 nM eserine. After a 1 h equilibration period, sample collection began. Outflow fractions were collected every 20 min. After six stable baseline fractions were collected, the perfusate was replaced to aCSF containing Compound A with 100 nM eserine for 120 min, and then it was switched again to aCSF with 100 nM eserine alone. Dialysis fractions were then analyzed using high performance liquid chromatography with an electrochemical detection system. Isopropyl homocholine was used as internal standard. The amount of ACh in each dialysate sample was calculated from the peak height ratio of ACh/IPHC. ACh content was expressed as a percent of baseline calculated from the average of three samples preceding drug infusion.
ACh content was expressed as a percent of baseline calculated from the average of three samples preceding drug infusion.

Abeta = details: NPL 13; cited from earlier work

CC(C)n1c(=O)n(C(=O)NCC2CCN(CC3(O)CCOCC3)CC2)c2ccccc21 [Compound A, N-((1-((4-hydroxytetrahydro-2H-pyran-4-yl)methyl)piperidin-4-yl)methyl)-3-isopropyl-2-oxo-2,3-dihydro-1H-benzo[d]imidazole-1-carboxamide]
discrimination index (Male IGS rats [1]; Compound A 0.1, 0.3, 1 mg/kg, orally 60 min before training and retention trial, vs vehicle (*p<0.05, **p<0.01, Dunnett)): statistically significant compared to that in vehicle-treated group
percent alteration (Male IGS rats [2]; 0.1 and 3 mg/kg, scopolamine-induced impairment): showed a tendency to improve without statistical significance
percent alteration (Male IGS rats [2]; doses of 0.3 and 1 mg/kg, scopolamine-induced impairment, vs vehicle-treated group (p<0.01)): significantly increased the percent alterations
total brain Abeta1-40 levels (Tg2576 mice): significantly decreased total brain Abeta1-40 levels
total brain Abeta1-42 levels (Tg2576 mice): dose-dependently and substantially decreased total brain Abeta1-42 levels
ACh concentration (percent of baseline) [3]: 187%

CC(C)n1c(=O)c(C(=O)NCCCN2CCCCC2)c(O)c2ccsc21 [PRX-03140]
Abeta reduction in animal models (Abeta): Abeta reducing tendency while those efficacies were not significant suppressions

COc1cc2c(cc1OC)C(=O)C(CC1CCN(Cc3ccccc3)CC1)C2 (stereo not drawn) [donepezil, donepezil hydrochloride, reference compound]
discrimination index (Male IGS rats [1]; donepezil-treated group, orally, vs vehicle (p<0.05, Student's t-test)): statistically significant compared to that in vehicle-treated group

CN1[C@@H]2C[C@@H](OC(=O)[C@H](CO)c3ccccc3)C[C@H]1[C@@H]1O[C@@H]12 [scopolamine, reference compound]
percent alteration (Male IGS rats [2]; scopolamine-treated group (intraperitoneal), saline-treated group 75.2%, p<0.01): 53.9%
